Earlier results in patent publication US11345706B2, “Crystalline forms of Acalabrutinib” (Apotex Inc., priority 2017, dated 2022).

**Q.** With `CC#CC(=O)N1CCC[C@H]1c1nc(-c2ccc(C(=O)Nc3ccccn3)cc2)c2c(N)nccn12` [Acalabrutinib, 4-{8-amino-3-[(2S)-1-(but-2-ynoyl)pyrrolidin-2-yl]imidazo[1,5-a]pyrazin-1-yl}-N-(pyridin-2-yl)benzamide] as the compound, how does the “Biopharmaceutics Classification System (BCS) solubility classification” value read?
**A.** Its value is “poorly soluble drug”.

**Q.** What about the pH-dependent solubility (pH values of greater than 4, reported in U.S. Pat. No. 9,796,721 B2) of the same compound?
**A.** Its pH-dependent solubility is “practically insoluble”.
